The values that follow come from US10954228B2 (NATIONAL INSTITUTES OF HEALTH, UNITED STATES DEPARTMENT OF …, priority 2016, dated 2021).

SMILES strings stand for the structures.

For test [1], the target named is Human LDHA (Homo sapiens (Human), UniProt P00338). The test can be described thus: human LDHA primary biochemical assay. The following applies: biochemical LDHA inhibitory activity, assay of Example 1; activity level classes defined in nM. A digest of the protocol:
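Human LDHA at 2 nM with 0.06 mM NADH and 0.2 mM sodium pyruvate in 200 mM Tris HCl pH 7.4, 100 μM EDTA, 0.01% TWEEN-20 (final). NADH consumption coupled to resazurin/diaphorase (0.037 mM; 0.133 mg/mL); inhibition read by fluorescence.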

For test [2], the system named is MiaPaCa2 cells. The test can be described thus: cell-based HT lactate assay by colorimetric/fluorometric detection (cellular inhibition of lactate production). How it is done: This example describes a cell-based metabolite assay by colorimetric/fluorometric detection employed in the characterization of a compound of formula (I) in an embodiment of the invention.
Cell-based HT Lactate assay is a miniaturized Biovision Lactate Colorimetric/Fluorometric Assay Kit (Cat #K607-100). The assay is roughly a 3.5 hour assay run in a 1536 plate format. Cell number optimization should be run for each cell line to achieve an optimal number in which lactate production equals roughly 90% of the standard curve range. Cell number per well optimization has been performed with the following cell lines: MiaPaCa2—500 cells/well, SNU398—500 cells/well, and P493—500 cells/well.

[3] abbreviates: Homo sapiens, MIA PaCa-2, assay of Example 6.

Consider `Cc1cc(C)c(C#Cc2cccc(-c3nn(-c4nc(C(=O)O)cs4)c(CC4CC4)c3Cc3ccc(S(N)(=O)=O)c(F)c3)c2)s1` [Compound 125, 2-(5-(cyclopropylmethyl)-3-(3-((3,5-dimethylthiophen-2-yl)ethynyl)phenyl)-4-(3-fluoro-4-sulfamoylbenzyl)-1H-pyrazol-1-yl) thiazole-4-carboxylic acid], for which the 50% inhibitory concentration (IC50) – broadly, the midpoint of a concentration-inhibition curve – in test [1] was less than 100 nM; in test [2] (setting [3]), less than 1000 nM.

Turning to `CC(C)c1ccc(C#Cc2cccc(-c3nn(-c4nc(C(=O)O)cs4)c(CC4CC4)c3Cc3ccc(S(N)(=O)=O)c(F)c3)c2)s1` [Compound 127, 2-(5-(cyclopropylmethyl)-4-(3-fluoro-4-sulfamoylbenzyl)-3-(3-((5-isopropylthiophen-2-yl)ethynyl)phenyl)-1H-pyrazol-1-yl)thiazole-4-carboxylic acid], the 50% inhibitory concentration (IC50) in test [1] is 100 to 1000 nM; in test [2] (setting [3]), less than 1000 nM.

On to `Cc1ccc(C#Cc2cccc(-c3nn(-c4nc(C(=O)O)cs4)c(CC4CC4)c3Cc3ccc(S(N)(=O)=O)c(F)c3)c2)o1` [Compound 129, 2-(5-(cyclopropylmethyl)-4-(3-fluoro-4-sulfamoylbenzyl)-3-(3-((5-methylfuran-2-yl)ethynyl)phenyl)-1H-pyrazol-1-yl)thiazole-4-carboxylic acid], for which the IC50 is less than 100 nM in test [1] and less than 1000 nM in test [2] (setting [3]).

Regarding `Cc1ccc(C2CC2c2cccc(-c3nn(-c4nc(C(=O)O)cs4)c(CC4CC4)c3Cc3ccc(S(N)(=O)=O)c(F)c3)c2)s1` (stereo not drawn) [Compound 130, 2-(5-(cyclopropylmethyl)-4-(3-fluoro-4-sulfamoylbenzyl)-3-(3-(2-(5-methylthiophen-2-yl)cyclopropyl)phenyl)-1H-pyrazol-1-yl)thiazole-4-carboxylic acid], the IC50 was less than 100 nM in test [1] and less than 1000 nM in test [2] (setting [3]).

For `Cc1ccc(C#Cc2cccc(-c3nn(-c4nc(C(=O)O)cs4)c(C4CC45CC5)c3Cc3ccc(S(N)(=O)=O)c(F)c3)c2)s1` (stereo not drawn) [Compound 131, 2-(4-(3-fluoro-4-sulfamoylbenzyl)-3-(3-((5-methylthiophen-2-yl)ethynyl)phenyl)-5-(spiro[2.2]pentan-1-yl)-1H-pyrazol-1-yl)thiazole-4-carboxylic acid], the values for the IC50 in test [1] and in test [2] (setting [3]) were less than 100 nM and less than 1000 nM, respectively.

Consider `Cc1ccc([C@H]2C[C@@H](c3cccc(-c4nn(-c5nc(C(=O)O)cs5)c(CC5CC5)c4Cc4ccc(S(N)(=O)=O)c(F)c4)c3)C2)s1` [Compound 132, 2-(5-(cyclopropylmethyl)-4-(3-fluoro-4-sulfamoylbenzyl)-3-(3-((cis)-3-(5-methylthiophen-2-yl)cyclobutyl)phenyl)-1H-pyrazol-1-yl)thiazole-4-carboxylic acid], for which the IC50 is less than 100 nM in test [1] and less than 1000 nM in test [2] (setting [3]).

On to `Cc1ccc(C2CC(c3cccc(-c4nn(-c5nc(C(=O)O)cs5)c(CC5CC5)c4Cc4ccc(S(N)(=O)=O)c(F)c4)c3)C2)s1` (stereo not drawn) [Compound 133, 2-(5-(cyclopropylmethyl)-4-(3-fluoro-4-sulfamoylbenzyl)-3-(3-(3-(5-methylthiophen-2-yl)cyclobutyl)phenyl)-1H-pyrazol-1-yl)thiazole-4-carboxylic acid], for which the IC50 in test [1] was less than 100 nM; in test [2] (assay of Example 6) it was less than 1000 nM.

Consider `Cc1ccc(-c2cc(-c3nn(-c4nc(C(=O)O)cs4)c(CC4CC4)c3Cc3ccc(S(N)(=O)=O)c(F)c3)ccc2F)cc1F` [Compound 137, 2-(5-(cyclopropylmethyl)-3-(3′,6-difluoro-4′-methyl-[1,1′-biphenyl]-3-yl)-4-(3-fluoro-4-sulfamoylbenzyl)-1H-pyrazol-1-yl)thiazole-4-carboxylic acid], for which the IC50 in test [1] is less than 100 nM; in test [2] (setting [3]), less than 1000 nM.

Regarding `NS(=O)(=O)c1ccc(Cc2c(-c3ccc(F)c(-c4ccc(C(F)(F)F)cc4)c3)nn(-c3nc(C(=O)O)cs3)c2CC2CC2)cc1F` [Compound 138, 2-(5-(cyclopropylmethyl)-3-(6-fluoro-4′-(trifluoromethyl)-[1,1′-biphenyl]-3-yl)-4-(3-fluoro-4-sulfamoylbenzyl)-1H-pyrazol-1-yl)thiazole-4-carboxylic acid], the figures for the half-maximal inhibitory concentration (IC50) in test [1] and in test [2] (setting [3]) were less than 100 nM and less than 1000 nM, respectively.

For `NS(=O)(=O)c1ccc(Cc2c(-c3ccc(F)c(-c4ccc(Cl)cc4)c3)nn(-c3nc(C(=O)O)cs3)c2CC2CC2)cc1F` [Compound 139, 2-(3-(4′-chloro-6-fluoro-[1,1′-biphenyl]-3-yl)-5-(cyclopropylmethyl)-4-(3-fluoro-4-sulfamoylbenzyl)-1H-pyrazol-1-yl)thiazole-4-carboxylic acid], the IC50 is less than 100 nM in test [1] and less than 1000 nM in test [2] (setting [3]).

For the compound `Cc1cccc(-c2cc(-c3nn(-c4nc(C(=O)O)cs4)c(CC4CC4)c3Cc3ccc(S(N)(=O)=O)c(F)c3)ccc2F)c1` [Compound 141], the half-maximal inhibitory concentration (IC50) is less than 100 nM in test [1] and less than 1000 nM in test [2] (assay of Example 6).

Regarding `NS(=O)(=O)c1ccc(Cc2c(-c3ccc(F)c(-c4ccc5c(c4)CCCC5)c3)nn(-c3nc(C(=O)O)cs3)c2CC2CC2)cc1F` [Compound 143, 2-(5-(cyclopropylmethyl)-3-(4-fluoro-3-(5,6,7,8-tetrahydronaphthalen-2-yl)phenyl)-4-(3-fluoro-4-sulfamoylbenzyl)-1H-pyrazol-1-yl)thiazole-4-carboxylic acid], the half-maximal inhibitory concentration (IC50) in test [1] is less than 100 nM; in test [2] (setting [3]) it was less than 1000 nM.

Turning to `NS(=O)(=O)c1ccc(Cc2c(-c3ccc(F)c(-c4ccc(Cl)c(F)c4)c3)nn(-c3nc(C(=O)O)cs3)c2CC2CC2)cc1F` [Compound 144, 2-(3-(4′-chloro-3′,6-difluoro-[1,1′-biphenyl]-3-yl)-5-(cyclopropylmethyl)-4-(3-fluoro-4-sulfamoylbenzyl)-1H-pyrazol-1-yl)thiazole-4-carboxylic acid], the IC50 in test [1] was less than 100 nM; in test [2] (setting [3]), less than 1000 nM.

For `NS(=O)(=O)c1ccc(Cc2c(-c3ccc(F)c(C4=CCCCC4)c3)nn(-c3nc(C(=O)O)cs3)c2CC2CC2)cc1F` [Compound 146, 2-(5-(cyclopropylmethyl)-3-(6-fluoro-2′,3′,4′,5′-tetrahydro-[1,1′-biphenyl]-3-yl)-4-(3-fluoro-4-sulfamoylbenzyl)-1H-pyrazol-1-yl)thiazole-4-carboxylic acid], the IC50 in test [1] is less than 100 nM; in test [2] (setting [3]) it was less than 1000 nM.

With `NS(=O)(=O)c1ccc(Cc2c(-c3ccc(F)c(-c4cccc(Cl)c4)c3)nn(-c3nc(C(=O)O)cs3)c2CC2CC2)cc1F` [Compound 149, 2-(3-(3′-chloro-6-fluoro-[1,1′-biphenyl]-3-yl)-5-(cyclopropylmethyl)-4-(3-fluoro-4-sulfamoylbenzyl)-1H-pyrazol-1-yl)thiazole-4-carboxylic acid], the IC50 is less than 100 nM in test [1] and less than 1000 nM in test [2] (setting [3]).

In the case of `COc1ccc(-c2cc(-c3nn(-c4nc(C(=O)O)cs4)c(CC4CC4)c3Cc3ccc(S(N)(=O)=O)c(F)c3)ccc2F)cc1C` [Compound 150, 2-(5-(cyclopropylmethyl)-3-(6-fluoro-4′-methoxy-3′-methyl-[1,1′-biphenyl]-3-yl)-4-(3-fluoro-4-sulfamoylbenzyl)-1H-pyrazol-1-yl)thiazole-4-carboxylic acid], the IC50 in test [1] is less than 100 nM; in test [2] (setting [3]), less than 1000 nM.

For the compound `Cc1cc(C)cc(-c2cc(-c3nn(-c4nc(C(=O)O)cs4)c(CC4CC4)c3Cc3ccc(S(N)(=O)=O)c(F)c3)ccc2F)c1` [Compound 151, 2-(5-(cyclopropylmethyl)-3-(6-fluoro-3′,5′-dimethyl-[1,1′-biphenyl]-3-yl)-4-(3-fluoro-4-sulfamoylbenzyl)-1H-pyrazol-1-yl)thiazole-4-carboxylic acid], the half-maximal inhibitory concentration (IC50) in test [1] is 100 to 1000 nM; in test [2] (setting [3]), less than 1000 nM.

For `COc1cc(OC)cc(-c2cc(-c3nn(-c4nc(C(=O)O)cs4)c(CC4CC4)c3Cc3ccc(S(N)(=O)=O)c(F)c3)ccc2F)c1` [Compound 153, 2-(5-(cyclopropylmethyl)-3-(6-fluoro-3′,5′-dimethoxy-[1,1′-biphenyl]-3-yl)-4-(3-fluoro-4-sulfamoylbenzyl)-1H-pyrazol-1-yl)thiazole-4-carboxylic acid], the IC50 in test [1] is less than 100 nM; in test [2] (setting [3]), less than 1000 nM.

Regarding `NS(=O)(=O)c1ccc(Cc2c(-c3ccc(F)c(-c4ccc5c(c4)CCC5)c3)nn(-c3nc(C(=O)O)cs3)c2CC2CC2)cc1F` [Compound 155, 2-(5-(cyclopropylmethyl)-3-(3-(2,3-dihydro-1H-inden-5-yl)-4-fluorophenyl)-4-(3-fluoro-4-sulfamoylbenzyl)-1H-pyrazol-1-yl)thiazole-4-carboxylic acid], the concentration for half-maximal inhibition (IC50) in test [1] is less than 100 nM; in test [2] (setting [3]) it was less than 1000 nM.

Regarding `NS(=O)(=O)c1ccc(Cc2c(-c3ccc(F)c(-c4cc(F)cc(F)c4)c3)nn(-c3nc(C(=O)O)cs3)c2CC2CC2)cc1F` [Compound 156, 2-(5-(cyclopropylmethyl)-4-(3-fluoro-4-sulfamoylbenzyl)-3-(3′,5′,6-trifluoro-[1,1′-biphenyl]-3-yl)-1H-pyrazol-1-yl)thiazole-4-carboxylic acid], the figures for the IC50 in test [1] and in test [2] (setting [3]) were less than 100 nM and less than 1000 nM, respectively.

On to `NS(=O)(=O)c1ccc(Cc2c(-c3ccc(F)c(-c4cc(Cl)cc(Cl)c4)c3)nn(-c3nc(C(=O)O)cs3)c2CC2CC2)cc1F` [Compound 157, 2-(5-(cyclopropylmethyl)-3-(3′,5′-dichloro-6-fluoro-[1,1′-biphenyl]-3-yl)-4-(3-fluoro-4-sulfamoylbenzyl)-1H-pyrazol-1-yl)thiazole-4-carboxylic acid], for which the figures for the concentration for half-maximal inhibition (IC50) in test [1] and in test [2] (setting [3]) were 100 to 1000 nM and less than 1000 nM, respectively.
